This assay addresses Prothrombin (Homo sapiens, UniProt P00734). The experiment in a line: Inhibition of thrombin (unknown origin).

For `COc1ccc(OC)c(S(=O)(=O)NC2CCCCN(CC(=O)NCc3ccc(C(=N)N)cc3)C2=O)c1` (configuration not stated), the Ki (as a rule, the equilibrium dissociation constant of an inhibitor or competing ligand from its target) is 0.01 µM.
As to `N=C(N)c1ccc(CNC(=O)CN2C(=O)C(NS(=O)(=O)c3ccc4c(c3)CCO4)CCc3ccccc32)cc1` (configuration not stated), the inhibition constant (Ki) is 0.0158 µM.

For the origin of these results see ChEMBL document CHEMBL2380282, “CROSS: an efficient workflow for reaction-driven rescaffolding and side-chain optimization using robust chemical reactions and available reagents” (J Med Chem, 2013).
